Experiments:
[1] = biological target: T1, Protein mono-ADP-ribosyltransferase PARP10 (Homo sapiens, UniProt Q53GL7); test: Inhibition of PARP-10 (unknown origin) mediated ADP-ribosylation of SRPK2 by fluorescence analysis using 3 uM SRPK2 as a substrate
T1 sequence (Q53GL7 whole entry): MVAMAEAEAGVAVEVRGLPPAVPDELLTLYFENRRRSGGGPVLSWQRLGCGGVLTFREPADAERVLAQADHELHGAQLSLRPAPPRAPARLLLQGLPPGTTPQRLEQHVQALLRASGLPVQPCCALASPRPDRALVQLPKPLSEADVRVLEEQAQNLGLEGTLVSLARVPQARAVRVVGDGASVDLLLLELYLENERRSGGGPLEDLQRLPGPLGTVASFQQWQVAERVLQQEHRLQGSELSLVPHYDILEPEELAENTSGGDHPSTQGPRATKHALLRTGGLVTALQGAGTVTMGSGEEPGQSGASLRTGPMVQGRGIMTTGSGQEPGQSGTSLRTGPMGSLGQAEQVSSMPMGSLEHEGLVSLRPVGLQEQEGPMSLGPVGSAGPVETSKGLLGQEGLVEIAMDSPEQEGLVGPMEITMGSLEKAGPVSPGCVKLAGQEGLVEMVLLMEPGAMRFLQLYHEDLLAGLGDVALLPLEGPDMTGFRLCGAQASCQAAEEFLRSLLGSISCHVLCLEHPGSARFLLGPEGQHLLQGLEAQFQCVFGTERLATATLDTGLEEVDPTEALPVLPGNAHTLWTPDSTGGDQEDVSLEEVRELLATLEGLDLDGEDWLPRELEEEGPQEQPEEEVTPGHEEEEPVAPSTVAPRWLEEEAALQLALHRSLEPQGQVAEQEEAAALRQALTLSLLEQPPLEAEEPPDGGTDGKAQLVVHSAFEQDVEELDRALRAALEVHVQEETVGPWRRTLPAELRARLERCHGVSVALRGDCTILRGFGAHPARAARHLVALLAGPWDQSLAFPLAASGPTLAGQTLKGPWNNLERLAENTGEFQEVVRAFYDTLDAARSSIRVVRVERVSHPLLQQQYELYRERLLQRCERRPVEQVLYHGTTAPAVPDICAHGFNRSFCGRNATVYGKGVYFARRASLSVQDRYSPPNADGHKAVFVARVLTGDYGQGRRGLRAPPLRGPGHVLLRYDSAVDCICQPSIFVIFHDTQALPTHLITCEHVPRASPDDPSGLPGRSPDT

[2] = biological target: Protein mono-ADP-ribosyltransferase PARP10 (Homo sapiens, UniProt Q53GL7, L926G); test: Inhibition of PARP-10 L926G mutant (unknown origin) mediated ADP-ribosylation of SRPK2 by fluorescence analysis using 3 uM SRPK2 as a substrate
[3] = biological target: Poly [ADP-ribose] polymerase 1 (Homo sapiens, UniProt P09874); test: Inhibition of PARP1 (unknown origin) by fluorescence analysis
Sequence of Poly [ADP-ribose] polymerase 1 (P09874 whole entry): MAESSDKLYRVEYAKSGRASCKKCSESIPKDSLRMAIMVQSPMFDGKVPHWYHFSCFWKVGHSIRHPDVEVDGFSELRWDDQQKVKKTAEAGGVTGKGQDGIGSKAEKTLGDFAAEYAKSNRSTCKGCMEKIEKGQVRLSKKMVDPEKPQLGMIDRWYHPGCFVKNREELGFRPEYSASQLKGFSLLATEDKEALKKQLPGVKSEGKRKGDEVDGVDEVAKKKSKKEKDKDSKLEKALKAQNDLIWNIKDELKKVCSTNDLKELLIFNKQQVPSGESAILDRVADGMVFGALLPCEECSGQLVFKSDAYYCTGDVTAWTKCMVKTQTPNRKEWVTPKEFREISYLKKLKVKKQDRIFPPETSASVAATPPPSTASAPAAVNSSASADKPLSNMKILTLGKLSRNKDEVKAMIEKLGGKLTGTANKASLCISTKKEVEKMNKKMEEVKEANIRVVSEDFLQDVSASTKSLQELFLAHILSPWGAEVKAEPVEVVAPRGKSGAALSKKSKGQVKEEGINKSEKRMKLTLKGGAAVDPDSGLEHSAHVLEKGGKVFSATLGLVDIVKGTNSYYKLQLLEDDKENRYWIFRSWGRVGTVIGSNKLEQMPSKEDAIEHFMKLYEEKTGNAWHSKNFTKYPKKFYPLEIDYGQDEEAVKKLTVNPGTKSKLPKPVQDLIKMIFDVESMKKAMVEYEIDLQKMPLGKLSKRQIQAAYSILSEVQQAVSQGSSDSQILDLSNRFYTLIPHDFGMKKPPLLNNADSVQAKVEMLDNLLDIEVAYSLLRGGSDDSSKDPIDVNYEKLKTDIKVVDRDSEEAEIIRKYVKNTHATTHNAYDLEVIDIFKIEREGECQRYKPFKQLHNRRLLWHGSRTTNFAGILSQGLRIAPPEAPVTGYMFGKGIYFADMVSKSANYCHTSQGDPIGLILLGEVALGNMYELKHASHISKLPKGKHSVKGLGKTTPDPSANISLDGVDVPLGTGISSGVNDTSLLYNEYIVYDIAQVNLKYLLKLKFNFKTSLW

Sequence of Protein mono-ADP-ribosyltransferase PARP10 (Homo sapiens, UniProt Q53GL7, L926G) (Q53GL7 whole entry L926G): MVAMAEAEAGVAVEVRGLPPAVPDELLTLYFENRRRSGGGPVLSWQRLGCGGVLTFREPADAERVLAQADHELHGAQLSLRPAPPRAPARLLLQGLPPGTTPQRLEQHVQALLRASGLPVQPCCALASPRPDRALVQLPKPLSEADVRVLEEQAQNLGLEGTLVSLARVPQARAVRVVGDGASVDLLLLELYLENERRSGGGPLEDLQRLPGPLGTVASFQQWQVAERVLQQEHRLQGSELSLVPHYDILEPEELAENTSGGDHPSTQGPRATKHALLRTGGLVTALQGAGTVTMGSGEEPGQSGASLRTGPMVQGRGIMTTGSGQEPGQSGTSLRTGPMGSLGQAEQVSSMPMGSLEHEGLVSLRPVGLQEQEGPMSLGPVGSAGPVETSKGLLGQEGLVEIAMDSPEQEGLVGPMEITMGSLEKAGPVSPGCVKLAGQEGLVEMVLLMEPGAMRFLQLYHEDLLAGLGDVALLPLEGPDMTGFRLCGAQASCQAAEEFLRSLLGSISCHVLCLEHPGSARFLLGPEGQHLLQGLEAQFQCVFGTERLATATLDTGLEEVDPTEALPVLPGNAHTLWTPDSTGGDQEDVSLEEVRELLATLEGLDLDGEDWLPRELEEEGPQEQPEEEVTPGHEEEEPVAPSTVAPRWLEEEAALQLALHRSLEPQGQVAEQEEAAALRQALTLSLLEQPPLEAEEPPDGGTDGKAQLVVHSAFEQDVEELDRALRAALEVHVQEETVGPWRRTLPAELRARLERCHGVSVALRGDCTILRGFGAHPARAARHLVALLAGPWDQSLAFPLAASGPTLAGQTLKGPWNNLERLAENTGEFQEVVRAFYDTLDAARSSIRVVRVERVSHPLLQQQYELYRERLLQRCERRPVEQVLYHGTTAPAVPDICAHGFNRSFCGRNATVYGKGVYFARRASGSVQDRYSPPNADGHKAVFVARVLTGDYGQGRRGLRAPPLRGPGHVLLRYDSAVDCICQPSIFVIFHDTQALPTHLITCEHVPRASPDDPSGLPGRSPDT

Structure (SMILES) | IC50 [1] | IC50 [2] | IC50 [3]
O=C1NCCc2ccc(Cl)cc21 | > 100 µM | 16.2 µM | 100 µM
O=C1NCCc2ccc(Br)cc21 | > 100 µM | 8.6 µM | > 100 µM
Cc1ccc2c(c1)C(=O)NCC2 | > 100 µM | 112 µM | > 100 µM
O=C1NCCc2ccc(C(F)(F)F)cc21 | > 100 µM | 65.5 µM | > 100 µM
O=C1NCCc2ccc(O)cc21 |  | > 30 µM | 
COc1ccc2c(c1)C(=O)NCC2 | > 100 µM | 172 µM | > 100 µM
